Results as given in paper PMC9487510, “A Novel Oral GyrB/ParE Dual Binding Inhibitor Effective against Multidrug-Resistant Neisseria gonorrhoeae and Other High-Threat Pathogens” (Antimicrobial Agents and Chemotherapy, 2022).
Converted amounts (≈) assume the structure as drawn. Read-outs that look alike come from different tables or passages of the source.

Tested on: MRSA
Assay: MIC, in vitro susceptibility testing (CLSI)
Format: cell-based, Staphylococcus aureus
Settings: Staphylococcus aureus, MRSA; for MIC: read-out: MIC

## CNc1cc(F)cc2c1[nH]c1nc(Oc3cnc(C)nc3)nc(N3CCC4(CC3)CO[C@@H](CO)C4)c12 [JSF-2414]
Strain 2 36 31
  MIC: 0.031 µg/mL (≈ 0.0628 µM)
Strain 2 66 36
  MIC: 0.016 µg/mL (≈ 0.0324 µM)
Strain 2 66 41
  MIC: 0.016 µg/mL (≈ 0.0324 µM)
Strain 2 78 41
  MIC: 0.062 µg/mL (≈ 0.126 µM)
Strain 2 78 62
  MIC: 0.031 µg/mL (≈ 0.0628 µM)
Strain 2 78 66
  MIC: 0.031 µg/mL (≈ 0.0628 µM)
Strain 2 78 96
  MIC: 0.031 µg/mL (≈ 0.0628 µM)
Strain 2 79 17
  MIC: 0.062 µg/mL (≈ 0.126 µM)
Strain 2 79 22
  MIC: 0.031 µg/mL (≈ 0.0628 µM)
Strain 2 79 25
  MIC: 0.031 µg/mL (≈ 0.0628 µM)
Strain 2 79 29
  MIC: 0.016 µg/mL (≈ 0.0324 µM)
Strain 2 79 33
  MIC: 0.031 µg/mL (≈ 0.0628 µM)
Strain 2 79 65
  MIC: 0.062 µg/mL (≈ 0.126 µM)
Strain 2 79 67 (first listing)
  MIC: 0.031 µg/mL (≈ 0.0628 µM)
Strain 2 79 67 (second listing)
  MIC: 0.031 µg/mL (≈ 0.0628 µM)
Strain 2 80 36
  MIC: 0.062 µg/mL (≈ 0.126 µM)
Strain 2 80 46
  MIC: 0.031 µg/mL (≈ 0.0628 µM)
Strain 2 80 48
  MIC: 0.031 µg/mL (≈ 0.0628 µM)
Strain 2 80 62
  MIC: 0.031 µg/mL (≈ 0.0628 µM)
Strain 2 80 67
  MIC: 0.062 µg/mL (≈ 0.126 µM)
Strain 2 81 54
  MIC: 0.031 µg/mL (≈ 0.0628 µM)
Strain 2 85 12
  MIC: 0.016 µg/mL (≈ 0.0324 µM)
Strain 2 85 13
  MIC: 0.008 µg/mL (≈ 0.0162 µM)
Strain 2 85 14
  MIC: 0.031 µg/mL (≈ 0.0628 µM)
Strain 2 85 32
  MIC: 0.062 µg/mL (≈ 0.126 µM)
Strain 2 87 54
  MIC: 0.031 µg/mL (≈ 0.0628 µM)
Strain 2 87 55
  MIC: 0.031 µg/mL (≈ 0.0628 µM)
Strain 2 87 77
  MIC: 0.016 µg/mL (≈ 0.0324 µM)
Strain 2 88 47
  MIC: 0.016 µg/mL (≈ 0.0324 µM)
Strain 2 88 71
  MIC: 0.016 µg/mL (≈ 0.0324 µM)
Strain 2 88 83
  MIC: 0.008 µg/mL (≈ 0.0162 µM)
Strain 2 88 84
  MIC: 0.004 µg/mL (≈ 0.0081 µM)
Strain 2 89 13
  MIC: 0.016 µg/mL (≈ 0.0324 µM)
Strain 2 89 17
  MIC: 0.008 µg/mL (≈ 0.0162 µM)
Strain 2 90 62
  MIC: 0.016 µg/mL (≈ 0.0324 µM)
Strain 2 90 86
  MIC: 0.016 µg/mL (≈ 0.0324 µM)
Strain 2 90 98
  MIC: 0.031 µg/mL (≈ 0.0628 µM)
Strain 2 91 55
  MIC: 0.031 µg/mL (≈ 0.0628 µM)
Strain 2 91 79
  MIC: 0.016 µg/mL (≈ 0.0324 µM)
Strain 2 91 84
  MIC: 0.031 µg/mL (≈ 0.0628 µM)
Strain 2 93 06
  MIC: 0.062 µg/mL (≈ 0.126 µM)
Strain 2 93 24
  MIC: 0.031 µg/mL (≈ 0.0628 µM)
Strain 2 93 30
  MIC: 0.031 µg/mL (≈ 0.0628 µM)
Strain 2 95 78
  MIC: 0.031 µg/mL (≈ 0.0628 µM)
Strain 2 96 95
  MIC: 0.031 µg/mL (≈ 0.0628 µM)
Strain 2 97 09
  MIC: 0.016 µg/mL (≈ 0.0324 µM)
Strain 3 03 39
  MIC: 0.016 µg/mL (≈ 0.0324 µM)
Strain 3 65 31
  MIC: 0.016 µg/mL (≈ 0.0324 µM)
Strain 3 65 39
  MIC: 0.016 µg/mL (≈ 0.0324 µM)
Strain 3 80 43
  MIC: 0.002 µg/mL (≈ 0.00405 µM)
Strain 3 80 68
  MIC: 0.008 µg/mL (≈ 0.0162 µM)
Strain USA400Padm
  MIC: 0.062 µg/mL (≈ 0.126 µM)
101 strains
  MIC50: 0.031 µg/mL (≈ 0.0628 µM)
  MIC90: 0.062 µg/mL (≈ 0.126 µM)
